Measurements as given in patent publication US4950686A, “Anti-mycoplasma agent” (Shionogi & Co., Ltd., priority 1986, dated 1990).
Converted amounts (≈) assume the structure as drawn.

Assays:
[1] = tested on: Mycoplasma gallisepticum MR-1 (wild strain, tylosin-resistant); assay: Anti-mycoplasma activity in vitro (MIC, broth dilution), strain MR-1; type: cell-based; details: Mg MR-1, 37° C., 7 days
Outline: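 Broth dilution in chick PPLO broth with 20% equine serum; 2-fold compound dilutions, inoculum diluted to 10^6 CCU/ml. Incubated 7 days at 37 °C; MIC recorded.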

[2] = tested on: Mycoplasma gallisepticum T-7-T (wild strain, tylosin-resistant); assay: Anti-mycoplasma activity in vitro (MIC, broth dilution), strain T-7-T; type: cell-based; details: Mg T-7-T, 37° C., 7 days
Outline: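 Broth dilution MIC in chick PPLO broth with 20% equine serum, using 2-fold agent dilutions. Inoculum of 24-48 h culture diluted to 10^6 CCU/ml before use. Incubated 7 days at 37° C.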

[3] = tested on: Mycoplasma gallisepticum S6 (standard strain); assay: Anti-mycoplasma activity in vitro (MIC, broth dilution), strain S6; type: cell-based; details: Mg S6, 37° C., 7 days
Outline: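 Chick PPLO broth with 20% equine serum; 2-fold serial agent dilutions inoculated with culture diluted to 10^6 CCU/ml (inoculum concentration before addition). Incubated 7 days at 37 °C; MIC by broth dilution.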

[4] = tested on: Mycoplasma gallisepticum MR-1 (wild strain, tylosin-resistant); assay: Mycoplasma gallisepticum air-sac infection method in chicken, strain MR-1;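 as to Index of Isolation: index = (P×1 + Q×2 + R×3)/S with range 0 to 6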; type: in vivo, Mycoplasma gallisepticum; SPF chicken (white leghorn); details: 100 mg/kg × once oral, 10 mg/ml sol. b
Protocol: (2) Test of Effectiveness Mycoplasma gallisepticum air-sac infection method
MR-1 (wild strain, tylosin-resistant)
Inoculation: To the right air-sac of 9 days old SPF chicken (a white leghorn) which has abstained from water and feed one day before is inoculated 0.20-0.25 ml/chicken of fresh mycoplasma culture incubated for 24-48 hr and diluted with broth (usually 100 times). The concentration in Table 2 is shown in a unit of mg/ml.
Medium: Chick PPLO broth supplemented with 15% equine serum (Eiken Kagaku Co., Ltd.)
Administration: A compound of this invention dissolved or suspended in the following solution is orally and forcibly administered once by a cannula immediately after the infection.
Anatomization and Isolation of Microorganism: The chickens are anatomized 5 days after the infection, and the right and left air sacs are investigated whether they are attacked with a disease or not. The change caused by the disease is represented in four degrees; -: no change, +: slight, ++: medium and +++: serious. Microorganism is isolated from the right and left air-sacs and the trachea by using a sterilized applicator.
Judgement: Judgement is done through an index of an air-sac disease and an index of a microorganism-isolation.
Index of an air-sac-disease: First, indexes in the right and left air-sacs are separately calculated according to the following formula;
{degree of disease (0-3)×chickens}/anatomized chickens
and the index is calculated by the following formula;
(index of right air-sac)×1+(index of left air-sac)×2
Index of a microorganism isolation:
P: chickens from the right air-sac of which microorganism is isolated,
Q: chickens from the trachea of which microorganism is isolated,
R: chickens from the left air-sac of which microorganism is isolated, and
S: chickens investigated.

Work on `O=c1cccccc1O` [Tropolone, tropolone] yielded an MIC [1] of 0.39 µg/mL (≈ 3.19 µM), an MIC [2] of 0.39 µg/mL (≈ 3.19 µM) and an MIC [3] of 0.2 µg/mL (≈ 1.64 µM). For the same compound, the “Change of air-sac, left: + (chickens)” value ([4]; inoculum 0.3 × 10^5) was 0, the “Change of air-sac, left: ++ (chickens)” value ([4]; inoculum 0.3 × 10^5) was 0 and the “Change of air-sac, left: +++ (chickens)” value ([4]; inoculum 0.3 × 10^5) was 0. For the same compound, the “Change of air-sac, left: - (chickens)” value ([4]; inoculum 0.3 × 10^5) was 6, the “Change of air-sac, right: + (chickens)” value ([4]; inoculum 0.3 × 10^5) was 0 and the “Change of air-sac, right: ++ (chickens)” value ([4]; inoculum 0.3 × 10^5) was 0. For the same compound, the “Change of air-sac, right: +++ (chickens)” value ([4]; inoculum 0.3 × 10^5) was 0, the “Change of air-sac, right: - (chickens)” value ([4]; inoculum 0.3 × 10^5) was 6 and the “Isolation, L (left air-sac)” value ([4]; inoculum 0.3 × 10^5) was 3. The “Isolation, R (right air-sac)” value ([4]; inoculum 0.3 × 10^5) was 4, the “Isolation, T (trachea)” value ([4]; inoculum 0.3 × 10^5) was 3 and the “Mycoplasma Isolated Chickens” value ([4]; inoculum 0.3 × 10^5) was 6. The “Index of Isolation” value ([4]; inoculum 0.3 × 10^5, range 0-6.0) was 3.2 and the “Index of Disease” value ([4]; inoculum 0.3 × 10^5, range 0-9.0) was 0.
